The subject of experiment [1] is Human RSV-A (“Long” strain). Description: RSV-A assay (CPE, ATPlite) in Hep-2 cells. It is filed as cell-based. Particulars: human respiratory syncytial virus, 120 h, MOI 0.1, 5-day incubation, ATPlite readout. The text has this:
Hep-2 cells, (originally derived from tumors grown in irradiated-cortisonised weanling rats that had been injected with epidermoid carcinoma tissue from a person's larynx, but later found to be indistinguishable from HeLa cells by PCR DNA analysis), were used for the culturing of genotype A, “Long” strain RSV. Flasks were inoculated with RSV and viral stocks were collected once cytopathic effect (CPE) was greater than 90%. Viral stocks in 25% sucrose media were snap frozen using liquid nitrogen to increase viral stability. Viral stock titers were quantified by tissue culture infectious dose 50% (TCID50) using 8,000 cells per well and 3-fold viral dilutions across a 96-well plate, cultured for 4 days. Viral stock titers were also quantified by a plaque forming unit assay, as described elsewhere.
Following extensive parameter testing, the final assay is run as follows: Hep-2 cells are seeded into the inner 60 wells of a 96-well plate at 8,000 cells per well in a volume of 50 μL using Growth Media (DMEM without phenol red, 1% L-Glut, 1% Penn/Strep, 1% nonessential amino acids, 10% heat-inactivated FBS). 2-fold serial dilutions of control and test compounds are added to the wells in duplicate in a total volume of 25 μL. Viral stock is then added to the wells at a multiplicity of infection (MOI) of 0.1 in a volume of 25 μL, bringing the total volume of each well to 100 μL. The MOI is calculated using the PFU/mL, or TCID50 if unavailable. Each 96-well plate has a control column of 6 wells with cells and virus but no compound (negative control, max CPE), a column with cells but no compound or virus (positive control, minimum CPE), and a column with no cells or virus or compound (background plate/reagent control). The control wells with cells but no virus are given an additional 25 μL of growth media containing an equal quantity of sucrose as those wells receiving the viral stock in order to keep consistent in media and volume conditions. The outer wells of the plate are filled with 125 μL of moat media (DMEM, 1% Penn/Strep) to act as a thermal and evaporative moat around the test wells. Following a 5-day incubation period, the plates are read using ATPlite (50 μL added per well), which quantifies the amount of ATP (a measure of cell health) present in each well. Assay plates are read using the Envision luminometer. In parallel, cytotoxicity is examined on an additional 96-well plate treated in an identical manner, but substituting the 25 μL of viral stock for 25 μL of growth media. […] EC50 ranges are as follows: A<0.4 μM; B 0.4-0.8 μM; C>0.8 μM.

The subject of experiment [2] is Human RSV-B (genotype B, strain 9320). Description: RSV-B assay (qPCR or ATPlite) in A549 cells. It counts as cell-based. The following applies: human respiratory syncytial virus, 144 h, strain 9320, MOI 0.5, 6 days post infection, qPCR or ATPlite readout. The text has this:
Hep-2 cells, (originally derived from tumors grown in irradiated-cortisonised weanling rats that had been injected with epidermoid carcinoma tissue from a person's larynx, but later found to be indistinguishable from HeLa cells by PCR DNA analysis), were used for the culturing of genotype B, strain 9320. Flasks were inoculated with RSV-B and viral stocks were collected once cytopathic effect (CPE) was greater than 90%. Viral stocks in 25% sucrose media were snap frozen using liquid nitrogen to increase viral stability. Viral stock titers were quantified by tissue culture infectious dose 50% (TCID50) using 8,000 cells per well and 5-fold viral dilutions across a 96-well plate, cultured for 4 days. Viral stock titers were also quantified by a plaque forming unit assay, as described elsewhere.
The assay is run as follows: A549 cells (originally derived through explant culture from a person's carcinomatous lung tissue) are seeded into the inner 60 wells of a 96-well plate at 3,000 cells per well in a volume of 50 μL using A549 growth media (F-12K Media, 1% Penn/Strep, 1% nonessential amino acids, 10% heat-inactivated FBS). 2-fold serial dilutions of control and test compounds are added to the wells in duplicate in a total volume of 25 μL. Viral stock is then added to the wells at a multiplicity of infection (MOI) of 0.5 in a volume of 25 μL, bringing the total volume of each well to 100 μL. The MOI is calculated using the PFU/mL, or TCID50 if unavailable. Each 96-well plate has a control column of 6 wells with cells and virus but no compound (negative control, max CPE), a column with cells but no compound or virus (positive control, minimum CPE), and a column with no cells or virus or compound (background plate/reagent control). The control wells with cells but no virus are given an additional 25 μL of growth media containing an equal quantity of sucrose as those wells receiving the viral stock in order to keep consistent in media and volume conditions. The outer wells of the plate are filled with 125 μL of moat media (DMEM, 1% Penn/Strep) to act as a thermal and evaporative moat around the test wells. 6 days post infection, the plates are read using qPCR or ATP lite (50 μL added per well), which quantifies the amount of ATP (a measure of cell health) present in each well. Assay plates treated with APTlite are read using the Envision luminometer. […] EC50 ranges are as follows: A<0.4 μM; B 0.4-0.8 μM; C>0.8 μM.

As a reminder, the EC50 is the midpoint of the concentration-response curve. Read a low EC50 as greater potency. As to `CCc1ncc(-c2cc(C(F)(F)F)cnc2-c2nnc(N[C@H]3N=C(c4ccccc4)c4cccc(F)c4NC3=O)o2)cn1` [Example 28], the EC50 in experiment [1] and in experiment [2] was less than 0.4 µM throughout.
Regarding `CCc1ncc(-c2sc(C(F)(F)F)nc2-c2nnc(N[C@@H]3N=C(c4ccccc4)c4cccc(F)c4NC3=O)o2)cn1` [Example 42], the EC50 in experiment [1] and in experiment [2] was less than 0.4 µM each time.
With `O=C1Nc2c(F)cccc2C(c2ccccc2)=N[C@H]1Nc1nnc(-c2nc(C3CC3)sc2-c2cnc(C3CC3)nc2)o1` [Example 47], the concentration giving a half-maximal response (EC50) in experiment [1] and in experiment [2] was less than 0.4 µM throughout.
For the molecule `O=C1Nc2c(F)cccc2C(c2ccccc2)=N[C@H]1Nc1nnc(-c2nc(C3CCC3)sc2-c2cnc(C3CC3)nc2)o1` [Example 64], the EC50 in experiment [1] is more than 0.8 µM; in experiment [2], less than 0.4 µM.
The matching figures for `Cc1ncc(-c2sc(C3CC3)nc2-c2nnc(N[C@@H]3N=C(c4ccccc4)c4cccc(F)c4NC3=O)o2)cn1` [Example 55]: more than 0.8 µM and less than 0.4 µM.
As to `CCc1ncc(-c2sc(C(F)(F)F)nc2-c2nnc(N[C@H]3N=C(c4ccccc4)c4cccc(F)c4NC3=O)o2)cn1` [Example 32], the half-maximal effective concentration (EC50) in experiment [1] and in experiment [2] was less than 0.4 µM in each case.
For the molecule `CCc1nc(-c2nnc(N[C@H]3N=C(c4ccccc4)c4cccc(F)c4NC3=O)o2)c(-c2cnc(C3CC3)nc2)s1` [Example 54], the EC50 in experiment [1] and in experiment [2] was less than 0.4 µM throughout.
As to `C=Cc1ncc(-c2cc(C(F)(F)F)cnc2-c2nnc(NC3N=C(c4ccccc4)c4ccccc4NC3=O)o2)cn1` (stereo not drawn) [Example 18], the 50% effective concentration (EC50) is 0.4 to 0.8 µM in experiment [1] and less than 0.4 µM in experiment [2].
The matching figures for `COc1ncc(-c2cc(C(F)(F)F)cnc2-c2nnc(NC3N=C(c4ccccc4)c4ccccc4NC3=O)o2)cn1` (stereo not drawn) [Example 3]: 0.4 to 0.8 µM and 0.4 to 0.8 µM.
The matching figures for `O=C1Nc2ccccc2C(c2ccccc2)=NC1Nc1nnc(-c2ncc(C(F)(F)F)cc2-c2cnc(NC3CC3)nc2)o1` (stereo not drawn) [Example 20]: 0.4 to 0.8 µM and less than 0.4 µM.
The matching figures for `Cc1ncc(-c2cc(C(F)(F)F)cnc2-c2nnc(NC3N=C(c4ccccc4)c4ccccc4NC3=O)o2)cn1` (stereo not drawn) [Example 1]: less than 0.4 µM and less than 0.4 µM.
Turning to `O=C1Nc2ccccc2C(c2ccccc2)=NC1Nc1nnc(-c2ncccc2-c2cnc(C3CC3)nc2)o1` (stereo not drawn) [Example 16], the EC50 in experiment [1] was 0.4 to 0.8 µM; in experiment [2], less than 0.4 µM.
The matching figures for `O=C1Nc2ccccc2C(c2ccccc2)=NC1Nc1nnc(-c2ncc(C(F)(F)F)cc2-c2cnc(Cl)nc2)o1` (stereo not drawn) [Example 14, 3-((5-(3-(2-chloropyrimidin-5-yl)-5-(trifluoromethyl)pyridin-2-yl)-1,3,4-oxadiazol-2-yl)amino)-5-phenyl-1,3-dihydro-2H-benzo[e][1,4]diazepin-2-one]: more than 0.8 µM and more than 0.8 µM.
The matching figures for `O=C1Nc2ccccc2C(c2ccccc2)=NC1Nc1nnc(-c2ncc(C(F)(F)F)cc2-c2cnc(F)nc2)o1` (stereo not drawn) [Example 17]: more than 0.8 µM and more than 0.8 µM.
The matching figures for `Cc1nc(-c2nnc(N[C@H]3N=C(c4ccccc4)c4cccc(F)c4NC3=O)o2)c(-c2cnc(C3CC3)nc2)s1` [Example 41]: less than 0.4 µM and less than 0.4 µM.
Take `O=C1Nc2c(F)cccc2C(c2ccccc2)=N[C@@H]1Nc1nnc(-c2ncc(C(F)(F)F)cc2-c2cnc(C3CC3)nc2)o1` [Example 24]: the EC50 in experiment [1] and in experiment [2] was less than 0.4 µM throughout.
`CCc1nc(-c2nnc(N[C@H]3N=C(c4ccccc4)c4cccc(F)c4NC3=O)o2)c(-c2cnc(C)nc2)s1` [Example 52]: the EC50 in experiment [1] and in experiment [2] was less than 0.4 µM each time.
For `CCc1ncc(-c2sc(C3CCC3)nc2-c2nnc(N[C@@H]3N=C(c4ccccc4)c4cccc(F)c4NC3=O)o2)cn1` [Example 59], the EC50 in experiment [1] and in experiment [2] was less than 0.4 µM in each case.
Regarding `CCc1ncc(-c2sc(C3(C)CC3)nc2-c2nnc(N[C@@H]3N=C(c4ccccc4)c4cccc(F)c4NC3=O)o2)cn1` [Example 68], the half-maximal effective concentration (EC50) in experiment [1] and in experiment [2] was less than 0.4 µM in each case.
`O=C1Nc2c(F)cccc2C(c2ccccc2)=N[C@H]1Nc1nnc(-c2nc(C3(C(F)(F)F)CC3)sc2-c2cnc(C3CC3)nc2)o1` [Example 74]: the EC50 in experiment [1] is more than 0.8 µM; in experiment [2], less than 0.4 µM.
Taken in the same sequence, the figures for `O=C1Nc2c(F)cccc2C(c2ccccc2)=N[C@@H]1Nc1nnc(-c2nc(C3CC3)sc2-c2cnc(C3CC3)nc2)o1` [Example 48] were less than 0.4 µM and less than 0.4 µM.
